Reference: publication PMC11264232, “Are the metal identity and stoichiometry of metal complexes important for colchicine site binding and inhibition of tubulin polymerization?” (Dalton Transactions (Cambridge, England : 2003), 2024)

Experiments:
[1] = Solution stability by UV–vis spectrophotometry; type: physicochemical
NCI-H460 = assay: NCI-60 five-dose screen; type: cell-based, human; conditions: Non-Small Cell Lung Cancer
Source text: (§1) The proligands HL^1–HL^3 and their corresponding metal complexes 1–8 prepared in this study were subjected to evaluation of their anticancer potential, including selectivity towards specific types of cancer: leukemia, non-small cell lung (NSCLC), colon, central nervous system (CNS), melanoma, ovarian, renal, prostate and breast cancers, by the National Cancer Institute's Developmental Therapeutics Program. This evaluation involved the utilization of the NCI 60 human tumor cell line panel.[57]
(§2) The NCI-60 SRB assay was performed as described previously.[76] GI50 values (the concentration of the metal complex causing 50% growth inhibition), TGI value (the concentration of the complex causing 0% cell growth), and LC50 (the concentration of the complex causing 50% cell death) were interpolated from dose–response curves that were plots of percentage cell growth versus concentration of test compounds.

HT29 = assay: NCI-60 five-dose screen; type: cell-based, human; conditions: Colon cancer
Source text: as §1, §2

SF-295 = assay: NCI-60 five-dose screen; type: cell-based, human; conditions: CNS cancer
Source text: as §1
(§3) GI50 values (the concentration of the metal complex causing 50% growth inhibition), TGI value (the concentration of the complex causing 0% cell growth), and LC50 (the concentration of the complex causing 50% cell death) were interpolated from dose–response curves that were plots of percentage cell growth versus concentration of test compounds.

SNB-75 = assay: NCI-60 five-dose screen; type: cell-based, human; conditions: CNS cancer
Source text: as §1, §2

OVCAR-8 = assay: NCI-60 five-dose screen; type: cell-based, human; conditions: Ovarian cancer
Source text: as §1, §2

UO-31 = assay: NCI-60 five-dose screen; type: cell-based, human; conditions: Renal cancer
Source text: as §3

MCF7 = assay: NCI-60 five-dose screen; type: cell-based, human; conditions: Breast cancer
Source text: as §3

Question: What does the source list for `CC(=NN=C([S-])Nc1cc(C)c(O)c(C)c1)c1cccc(CN2CCOCC2)n1.CC(=NN=C([S-])Nc1cc(C)c(O)c(C)c1)c1cccc(CN2CCOCC2)n1.O=[N+]([O-])[O-].[Fe+3]` [Complex 4, [Fe^III(L^2)2]NO3]?
Answer: stability of Fe(III) complexes ([1]; DMSO and water at pH 7.4): slow partial dissociation; stability of Fe(III) complexes ([1]; pH 2): complete dissociation; stability of Fe(III) complexes ([1]; pH 11.7, anoxic conditions): the changes were minimal; GI50 (NCI-H460): 1980 nM; GI50 (HT29): 7.12 µM; GI50 (SF-295): 1940 nM; GI50 (SNB-75): 1580 nM; GI50 (OVCAR-8): 2500 nM; GI50 (UO-31): 1660 nM; GI50 (MCF7): 1950 nM
